What all share (assay type): cell-based
The subject of assay [1] is HTT mRNA. Kind of assay: Splicing RT-qPCR assay (THP), Table 2A. Particulars: Table 2A (THP); for AC50: AJ mRNA increase, read-out: HTT AJ (increase in alternative junction mRNA, AC50); for IC50: CJ mRNA decrease, read-out: HTT CJ (decrease in canonical junction mRNA, IC50).
For assay [2], the system named is MYB mRNA. Kind of assay: Splicing RT-qPCR assay (THP), Table 2A. To be noted: Table 2A (THP); for AC50: AJ mRNA increase, read-out: MYB AJ (increase in alternative junction mRNA, AC50); for IC50: CJ mRNA decrease, read-out: MYB CJ (decrease in canonical junction mRNA, IC50). Background: Real-time PCR tracks product formation cycle by cycle.
Assay [3] deals with SH-SY5Y (human neuroblastoma) cells. Kind of assay: Cell viability, Cell Titer Glo 2.0 assay. To be noted: read-out: Viability SHSY5Y.3 GI50. The method, boiled down: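 Viability was read by CellTiter-Glo 2.0 luminescence after a 72-hour compound exposure at 37° C. under 5% CO2. Cells were in IMDM plus 10% FBS containing 0.1% DMSO, and medium-only wells gave the blank.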
(Cellular ATP, detected with luciferase, serves as a proxy for viable cell number.)

The test system of assay [4] is HTT mRNA. Description: Gene panel canonical junction qPCR assay, decrease in CJ mRNA, Table 3. Particulars: decrease in canonical junction (CJ) mRNA, gene panel qPCR, Table 3. The method, boiled down:
(§1)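 IC50 denotes the concentration giving 50% decrease in canonical-junction mRNA, fitted by 4-parameter logistic to percentage response derived from ΔΔCt versus housekeeping gene and DMSO control. Cells (A673 or K562) exposed 24 h to 11-point 3-fold serial dilutions from 10 uM top, DMSO ≤0.25%; junction-spanning primer/probe qPCR.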

Assay [5] concerns MYB mRNA. The description is as above. Particulars: decrease in canonical junction (CJ) mRNA, gene panel qPCR, Table 3. The method, boiled down:
as §1

Broadly, the AC50 is the concentration giving half of the maximal activity seen. Usually IC50 stands for the point on the concentration scale where inhibition reaches its midpoint. What is called GI50 is the concentration giving 50% growth inhibition. Regarding `Cc1cc2oc(NC(=O)c3c(F)cc(N4CCC(NC5CC5)CC4)c4cn(C)nc34)cc2c(C)n1` [Compound 491, 4-[4-(cyclopropylamino)-1-piperidyl]-N-(4,6-dimethyl-furo[3,2-c]pyridin-2-yl)-6-fluoro-2-methyl-indazole-7-carboxamide], the AC50 in assay [1] and in assay [2] was above 10 µM in each case. Moreover, the IC50 in assay [1], in assay [2], in assay [4] and in assay [5] was above 10 µM throughout. Also, the 50% growth inhibitory concentration (GI50) in assay [3] is 1 to 10 µM.

For the molecule `Cc1cn2cc(NC(=O)c3ccc(N4CCC(NC5CC5)CC4)c4cn(C)nc34)nc2c(-c2cnsc2)n1` [Compound 492, 4-[4-(cyclopropylamino)-1-piperidyl]-N-(8-isothiazol-4-yl-6-methyl-imidazo[1,2-a]-pyrazin-2-yl)-2-methyl-indazole-7-carboxamide], the AC50 in assay [1] and in assay [2] was above 10 µM each time. Further, the IC50 in assay [1], in assay [2], in assay [4] and in assay [5] was above 10 µM each time. In addition, the GI50 in assay [3] is above 10 µM.

For the molecule `CCNCC1CN(c2ccc(C(=O)Nc3cn4cc(C)nc(C)c4n3)c3nn(C)cc23)C1` [Compound 494, N-(6,8-dimethylimidazo[1,2-a]-pyrazin-2-yl)-4-[3-(ethylaminomethyl)azetidin-1-yl]-2-methyl-indazole-7-carboxamide], the concentration at half-maximal activity (AC50) in assay [1] and in assay [2] was above 10 µM throughout. For the same molecule, the 50% inhibitory concentration (IC50) in assay [1], in assay [2], in assay [4] and in assay [5] was above 10 µM each time. Also, the concentration for 50% growth inhibition (GI50) in assay [3] is above 10 µM.

On to `Cc1nc(C)c2nc(NC(=O)c3ccc(N4CCC(NC5CC5)CC4)c4cn(C)nc34)cn2c1C` [Compound 495, 4-[4-(cyclopropyl-amino)-1-piperidyl]-2-meth-yl-N-(5,6,8-trimethylimi-dazo-[1,2-a]pyrazin-2-yl)-indazole-7-carboxamide], for which the concentration at half-maximal activity (AC50) in assay [1] and in assay [2] was 0.1 to 1 µM throughout. The 50% inhibitory concentration (IC50) in assay [1], in assay [2], in assay [4] and in assay [5] was 0.1 to 1 µM in each case. The GI50 in assay [3] fell in the range of 0.1 to 1 µM.

With `Cc1cn2cc(NC(=O)c3ccc(N4CC5(CNC5)C4)c4cn(C)nc34)nc2c(C)n1` [Compound 496], the figures for the AC50 in assay [1] and in assay [2] were above 10 µM and 0.1 to 1 µM, respectively. Further, the half-maximal inhibitory concentration (IC50) in assay [1] is above 10 µM; in assay [2], 1 to 10 µM; in assay [4] it was above 10 µM; in assay [5] it was 1 to 10 µM. Also, the GI50 in assay [3] is above 10 µM.

For `Cc1cn2cc(NC(=O)c3ccc(N4CC5(CNCCO5)C4)c4cn(C)nc34)nc2c(C)n1` [Compound 497], the AC50 in assay [1] and in assay [2] was above 10 µM throughout. In addition, the concentration for half-maximal inhibition (IC50) in assay [1], in assay [2], in assay [4] and in assay [5] was above 10 µM in each case. In assay [3], the GI50 is 1 to 10 µM.

For `Cc1cn2cc(NC(=O)c3ccc(N4CC(C5CNC5)C4)c4cn(C)nc34)nc2c(C)n1` [Compound 498], the AC50 in assay [1] and in assay [2] was above 10 µM throughout. The half-maximal inhibitory concentration (IC50) in assay [1], in assay [2], in assay [4] and in assay [5] was above 10 µM in each case. In assay [3], the concentration for 50% growth inhibition (GI50) was above 10 µM.

Take `Cc1cn2cc(NC(=O)c3ccc(N4CC(C5CCNCC5)C4)c4cn(C)nc34)nc2c(C)n1` [Compound 499]: the concentration at half-maximal activity (AC50) in assay [1] and in assay [2] was 1 to 10 µM in each case. Further, the IC50 in assay [1], in assay [2], in assay [4] and in assay [5] was 1 to 10 µM in each case. Besides, the concentration for 50% growth inhibition (GI50) in assay [3] was 1 to 10 µM.

For the molecule `Cc1cn2cc(NC(=O)c3ccc(N4CC(N5CCNCC5)C4)c4cn(C)nc34)nc2c(C)n1` [Compound 500], the half-maximal activity concentration (AC50) in assay [1] and in assay [2] was above 10 µM throughout. The IC50 in assay [1], in assay [2], in assay [4] and in assay [5] was above 10 µM each time. In addition, the concentration for 50% growth inhibition (GI50) in assay [3] is above 10 µM.

Turning to `CNC1CCN(c2ccc(C(=O)Nc3cn4cc(C)nc(C)c4n3)c3nn(C)cc23)C1` (stereo not drawn) [Compound 505], the AC50 in assay [1] and in assay [2] was 0.1 to 1 µM each time. The IC50 in assay [1], in assay [2], in assay [4] and in assay [5] was 0.1 to 1 µM throughout. For the same molecule, the GI50 in assay [3] was in the range of 0.1 to 1 µM.

Take `COc1cc2nn(C)cc2cc1NC(=O)c1ccc(N2CC3(CNC3)C2)c2cn(C)nc12` [Compound 506]: the AC50 in assay [1] fell in the range of 1 to 10 µM; in assay [2], 0.1 to 1 µM. The 50% inhibitory concentration (IC50) in assay [1] was 1 to 10 µM; in assay [2], 0.1 to 1 µM; in assay [4] it was 1 to 10 µM; in assay [5] it was 0.1 to 1 µM. The GI50 in assay [3] was above 10 µM.

Take `COc1cc2nn(C)cc2cc1NC(=O)c1ccc(N2CC3(CCNCC3)C2)c2cn(C)nc12` [Compound 507]: the half-maximal activity concentration (AC50) in assay [1] was 1 to 10 µM; in assay [2] it was 0.1 to 1 µM. The IC50 in assay [1], in assay [2], in assay [4] and in assay [5] was 1 to 10 µM in each case. Further, the GI50 in assay [3] was in the range of 1 to 10 µM.

`COc1cc2nn(C)cc2cc1NC(=O)c1ccc(N2CC3(CNCCO3)C2)c2cn(C)nc12` [Compound 508]: the figures for the AC50 in assay [1] and in assay [2] were above 10 µM and 1 to 10 µM, respectively. Further, the IC50 in assay [1], in assay [2], in assay [4] and in assay [5] was above 10 µM in each case. Also, the concentration for 50% growth inhibition (GI50) in assay [3] fell in the range of 1 to 10 µM.

With `COc1cc2nn(C)cc2cc1NC(=O)c1ccc(N2CC(C3CNC3)C2)c2cn(C)nc12` [Compound 509], the AC50 in assay [1] and in assay [2] was above 10 µM throughout. In addition, the IC50 in assay [1], in assay [2], in assay [4] and in assay [5] was above 10 µM each time. The 50% growth inhibitory concentration (GI50) in assay [3] was above 10 µM.

Take `COc1cc2nn(C)cc2cc1NC(=O)c1ccc(N2CCC3(CCCN3)C2)c2cn(C)nc12` (stereo not drawn) [Compound 512]: the AC50 in assay [1] was above 10 µM; in assay [2], 0.1 to 1 µM. Also, the IC50 is above 10 µM in assay [1], 1 to 10 µM in assay [2], above 10 µM in assay [4] and 1 to 10 µM in assay [5]. Also, the GI50 in assay [3] was in the range of 1 to 10 µM.

For the molecule `COc1cc2nn(C)cc2cc1NC(=O)c1ccc(N2CCC3(CCNC3)C2)c2cn(C)nc12` (stereo not drawn) [Compound 513], the results for the AC50 in assay [1] and in assay [2] were above 10 µM and 1 to 10 µM, respectively. For the same molecule, the IC50 was above 10 µM in assay [1], 1 to 10 µM in assay [2], above 10 µM in assay [4] and 1 to 10 µM in assay [5]. Besides, in assay [3], the 50% growth inhibitory concentration (GI50) is above 10 µM.

Take `COc1cc2nn(C)cc2cc1NC(=O)c1ccc(N2CC3CNCC3C2)c2cn(C)nc12` (stereo not drawn) [Compound 514]: the concentration at half-maximal activity (AC50) in assay [1] was 1 to 10 µM; in assay [2], 0.1 to 1 µM. Besides, the IC50 in assay [1] is 1 to 10 µM; in assay [2], 0.1 to 1 µM; in assay [4], 1 to 10 µM; in assay [5] it was 0.1 to 1 µM. Further, the GI50 in assay [3] is above 10 µM.

Regarding `COc1cc2nn(C)cc2cc1NC(=O)c1ccc(N2CC[C@@H]3CNCC[C@@H]32)c2cn(C)nc12` [Compound 515], the AC50 in assay [1] lay within 1 to 10 µM; in assay [2], 0.1 to 1 µM. In addition, the IC50 is above 10 µM in assay [1], 0.1 to 1 µM in assay [2], above 10 µM in assay [4] and 0.1 to 1 µM in assay [5]. The GI50 in assay [3] was in the range of 1 to 10 µM.

For the molecule `CNC1CCN(c2ccc(C(=O)Nc3cc4cn(C)nc4cc3OC)c3nn(C)cc23)C1` (stereo not drawn) [Compound 518], the AC50 in assay [1] is 1 to 10 µM; in assay [2], below 0.1 µM. Moreover, the 50% inhibitory concentration (IC50) fell in the range of 1 to 10 µM in assay [1], 0.1 to 1 µM in assay [2], 1 to 10 µM in assay [4] and 0.1 to 1 µM in assay [5]. For the same molecule, the 50% growth inhibitory concentration (GI50) in assay [3] lay in the range of 1 to 10 µM.

For the molecule `CNC1CCN(c2ccc(NC(=O)c3cc4cc(C)nn4cc3OC)c3nn(C)cc23)CC1` [Compound 520, 6-methoxy-2-methyl-N-[2-methyl-4-[4-(methyamino)-1-piperidyl]indazol-7-yl]-pyrazolo[1,5-a] pyridine-5-carboxamide], the half-maximal activity concentration (AC50) in assay [1] and in assay [2] was above 10 µM in each case. The IC50 in assay [1], in assay [2], in assay [4] and in assay [5] was above 10 µM in each case. Further, the concentration for 50% growth inhibition (GI50) in assay [3] is above 10 µM.

On to `CNC1CCN(c2ccc(NC(=O)c3cc4cn(C)nc4cc3OC)c3nn(C)cc23)CC1` [Compound 521, 6-methoxy-2-methyl-N-[2-methyl-4-[4-(methylamino)-1-piperidyl]indazol-7-yl]-indazole-5-carboxamide], for which the AC50 in assay [1] and in assay [2] was above 10 µM throughout. For the same molecule, the half-maximal inhibitory concentration (IC50) in assay [1], in assay [2], in assay [4] and in assay [5] was above 10 µM each time. In addition, in assay [3], the GI50 was above 10 µM.

The record behind these values is US20260285853A1, “COMPOUNDS AND METHODS FOR MODULATING SPLICING” (REMIX THERAPEUTICS INC., priority 2023, published 2026).
